The conditions of data set [1]: HAT regimens; cited from earlier work.
Data set [2] is described as follows: Cytotoxicity, resazurin reduction assay, HepG2. Format: cell-based, human. As to conditions: human. How it is done: Vero E6 (African green monkey kidney), Raw264.7 (murine macrophages) and HepG2 (human hepatocyte carcinoma) cell lines, sourced from the American Type Culture Collection, were cultured in DMEM supplemented with 10% (v/v) heat-inactivated fetal bovine serum, 1% (v/v) non-essential amino acids, and 1% (v/v) penicillin-streptomycin. Cells were maintained at 37 °C in a 5% CO2 atmosphere. For cytotoxicity testing, they were seeded (90 µL) in 96-well plates at a density of 1x10^4 cells/well, in duplicate, and allowed to adhere overnight. Serial dilutions (50-0.08 µM) of the compounds were prepared, and 10 µL of each were incubated with the monolayer for 48 hours. Podophyllotoxin was tested as a positive control at 10 μM and 0.5% DMSO (100% cell viability) was used as negative control. Cell viability was then assessed using the resazurin reduction assay, as described above. The 50% cytotoxic concentration (CC50) was calculated using GraphPad Prism software (version 8.0), and selectivity indices (SIs) were determined by dividing the […].
Data were analysed using Microsoft Excel and GraphPad Prism 8.0. Nonlinear regression with a sigmoidal dose-response fit model was applied to the data to determine IC50 and CC50 values. Results represent the mean ± standard deviation (SD) from two independent experiments performed in duplicate.
(In general: Alamar Blue is a resazurin reagent that responds to reducing activity.)

Data set [3] deals with bloodstream forms of T. b. brucei Lister 427. The experiment in a line: Resazurin reduction growth inhibition assay against bloodstream forms of T. b. brucei. In kind it is cell-based, Trypanosoma brucei brucei. As to conditions: 72 hours, read-out: IC50 ± SD (µM) T. b. b. As for the experimental part:
Bloodstream forms of T. b. brucei Lister 427, a virulent laboratory strain of Trypanosoma brucei were cultured in HMI-9 medium as previously described. […] The resulting signal measured between 570 nm and 590 nm, is directly proportional to the quantity of viable parasites. […] After incubation, a working solution of resazurin (0.15 mg/mL in DPBS) was added to the plates in a 1:10 (v/v) ratio, followed by incubation for 4 hours at 37 °C with 5% CO2. Fluorescence was measured using an Infinite M200 microplate reader (Tecan) at excitation and emission wavelengths of 530 nm and 590 nm, respectively. Compound achieving ≥ 50% inhibition of trypanosomes were selected for further dose-response studies.
Compounds that adhered to the cutoff criterion (≥ 50% inhibition) were serially diluted and tested for their half-maximal inhibitory concentrations (IC50). […] Dose-response curves were generated using GraphPad Prism software (version 8.0). […]
Data were analysed using Microsoft Excel and GraphPad Prism 8.0. Nonlinear regression with a sigmoidal dose-response fit model was applied to the data to determine IC50 and CC50 values.

Data set [4] addresses TANK-binding kinase 1 (TBK1). Details: method as in ref 37 = [37]; 37 Dorsch D , Wucherer-Plietker M , Mueller TJ , Merkul E . 3-([1,2,3]triazole-4-yl)-pyrrolo[2,3-b]pyridine derivates . World Intellectual Property Organization . 2010 . https://patents.google.com/pat. As to conditions: cited from earlier work.
For data set [5], the system named is bloodstream forms of T. b. brucei. The experiment in a line: Trypanosome killing kinetics (time-kill assay). Format: cell-based, Trypanosoma brucei brucei. To be noted: 8IC50, 4IC50, IC50, 0.25IC50; over 72 hours. How it is done: (§1) To evaluate the killing kinetics of selected compounds, bloodstream forms of T. b. brucei (2 x 10⁵ cells/mL) were incubated in normal culture conditions in the presence of compounds at 8IC50, 4IC50, IC50, and 0.25IC50 concentrations in 24-well plates. Upon incubation, cultures were centrifuged at 0, 4, 8, 12, 24, 30, 36, 48, 60, and 72 hours’ time intervals at 2,500 rpm followed by motile trypanosomes enumeration using a Lumascope LS520 inverted microscope. To determine the mode of inhibition (parasitostatic or parasiticidal), a rescue experiment was conducted. Trypanosomes were exposed to the test doses (8IC50, 4IC50, IC50, and 0.25IC50) of the compounds for 4 hours. They were then washed three times with phosphate buffer saline (DPBS 1X), centrifuged at 2,500 rpm for 7 minutes, and resuspended in complete drug-free medium. These parasites were cultured under the same conditions, and motile organisms were enumerated with the Neubauer chamber at regular intervals over 72 hours. Data were plotted using GraphPad Prism 8.0 to determine the inhibition kinetics and classify the inhibitors as cidal or static. Pentamidine isethionate served as the reference compound and experiments were performed in duplicate.

Data set [6] has the same test system. The experiment in a line: Rescue experiment (4 h exposure, washout, drug-free medium). Format: cell-based, Trypanosoma brucei brucei. As to conditions: 72 hours monitoring, 4xIC50 and 8xIC50. How it is done:
as §1

A short description of data set [7]: Cytotoxicity, resazurin reduction assay, Raw264.7. In kind it is cell-based, murine. As to conditions: mouse. How it is done: (§2) For cytotoxicity testing, they were seeded (90 µL) in 96-well plates at a density of 1x10^4 cells/well, in duplicate, and allowed to adhere overnight. […] Cell viability was then assessed using the resazurin reduction assay, as described above. […] Data were analysed using Microsoft Excel and GraphPad Prism 8.0. Nonlinear regression with a sigmoidal dose-response fit model was applied to the data to determine IC50 and CC50 values. Results represent the mean ± standard deviation (SD) from two independent experiments performed in duplicate.

The nature of data set [8]: Cytotoxicity, resazurin reduction assay, Vero. Format: cell-based. As to conditions: African green monkey. How it is done:
as §2

In another data set the test system is normal cells. Also noted: method as in ref 37 = [37]; 37 Dorsch D , Wucherer-Plietker M , Mueller TJ , Merkul E . 3-([1,2,3]triazole-4-yl)-pyrrolo[2,3-b]pyridine derivates . World Intellectual Property Organization . 2010 . https://patents.google.com/pat. To be noted: cited from earlier work.
Data set [9] deals with human CX3C motif chemokine receptor 1 (CX3CR1). Details: method as in printed. As to conditions: known human target; ref not given; cited from earlier work.
Setting [10] is: Trypanosoma brucei, 72 h, confirmation screen, powdered form.
Where [11] appears, read: Trypanosoma brucei, 72 h, primary screen, DMSO stock solution, bloodstream form T. b. brucei Lister 427.
The mark [12] stands for this setting: primary screen, DMSO stock solution, bloodstream form T. b. brucei Lister 427.

“Also recorded” adds a separate entry of the source. Where two headings read alike, the source gives them in different places.

As for `Nc1nc(N)nc(Nc2ccc([As]3SCC(CO)S3)cc2)n1` (centres unmarked) [melarsoprol], the “fatal encephalopathy, percentage of cases” value in data set [1] is 5–10%.
In general, CC50 refers to the concentration giving 50% cytotoxicity. The IC50 is the concentration at which inhibition is half-maximal. Take `Cn1cc(-c2cnc3[nH]cc(-c4cn(Cc5cccc(F)c5F)nn4)c3c2)cn1` [OGHL00169, 3-(1-(2,3-difluorobenzyl)-1H-1,2,3-triazol-4-yl)-5-(1-methyl-1H-pyrazol-4-yl)-1H-pyrrolo[2,3-b]pyridine]: the CC50 at 48 h is 50 µM in data set [2], 12.1 ± 1.6 µM in [7] and 2.8 ± 0.03 µM in data set [8]. In addition, the IC50 is 0.25 ± 0.04 µM in data set [3] (setting [10]), not above 1 µM in data set [3] (setting [11]), 0.85 ± 0.02 µM in data set [3] (setting [12]) and 0.000196 µM in [4]. The “activity profile in time-kill assay (trypanocidal or cytostatic)” value in data set [5] was “strong trypanocidal activity”. The “effect after short exposure and washout (reversible or irreversible)” value in data set [6] is on record as “irreversible trypanocidal activity; also recorded: irreversible trypanocidal effects”. In the data set with normal cells, the CC50 is 1 to 10 µM.
Consider `CN(C)C(=O)/C=C/C(=O)c1ccc(SCc2ccc(Cl)cc2Cl)cc1` [OGHL00006, (E)-4-(4-((2,4-dichlorobenzyl)thio)phenyl)-N,N-dimethyl-4-oxobut-2-enamide], for which the CC50 at 48 h in data set [2] was found to be 17.5 ± 0.94 µM; in data set [7], 2.2 ± 0.05 µM; in [8], 1.2 ± 0.07 µM. Besides, the IC50 in data set [3] (setting [10]) was 0.6 ± 0.1 µM; in [3] (setting [11]) it was not above 1 µM; in [3] (setting [12]) it was 0.56 ± 0.001 µM; in data set [9] it was 0.526 µM. Also, the “activity profile in time-kill assay (trypanocidal or cytostatic)” value in data set [5] is reported as “strong trypanocidal activity”. Moreover, the “effect after short exposure and washout (reversible or irreversible)” value in data set [6] is listed as “irreversible trypanocidal activity; also recorded: irreversible trypanocidal effects”.

The values are drawn from paper PMC12622802, “Potent kinase inhibitors from the Merck KGaA OGHL: Novel hits against Trypanosoma brucei with potential for repurposing” (PLOS Neglected Tropical Diseases, 2025).
